In ChEMBL document CHEMBL1201862, “PubChem BioAssay data set” (2004):
Active and inactive are the calls of the source.

Assays:
[1] = Vero E6 cell cytotoxicity, dose response, cytotoxicity control for non-replicating M. tuberculosis project, secondary assay (AID 492998); format: functional, VeroE6; conditions: Vero C1008
[2] = THP-1 cell cytotoxicity, dose response, cytotoxicity control for non-replicating M. tuberculosis project (AID 489025); format: functional
[3] = Trypanosoma cruzi growth suppression in host cells – NIH3T3 host cells, beta-gal luminescence, confirmation (AID 2044); format: functional, cell-based;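 further: intracellular parasites grown in NIH/3T3 mouse fibroblasts as host cells; luminescent beta-galactosidase reporter signal from transgenic T. cruzi replicating inside host cells; inhibitors lower the luminescence signal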
[4] = HepG2 cell cytotoxicity, dose response, cytotoxicity control for non-replicating M. tuberculosis project (AID 489018); format: functional; conditions: Mycobacterium tuberculosis
[5] = microbe, parasite or virus in culture; format: functional; conditions: Mycobacterium tuberculosis
[6] = biological target: Dual specificity protein phosphatase 3 (Homo sapiens, UniProt P51452); experiment: SAR VHR1 Fluorescent Assay for In Vitro dose response studies Set 3. [Related pubchem assays (depositor defined):AID1654, AID1661, AID1878]; format: functional
[7] = NIH3T3 cell viability loss – ATP luminescence, mouse fibroblasts, counter-screen, dose response (AID 2010); format: functional, cell-based;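 further: cells exposed to compound for about 90 hours before reading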
[8] = biological target: T1, Caspase-3 (Homo sapiens, UniProt P42574); format: functional;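 further: Dose-response selectivity test against caspase-3 for candidate inhibitors of sentrin-specific proteases (SENPs)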
T1 sequence (P42574 whole entry): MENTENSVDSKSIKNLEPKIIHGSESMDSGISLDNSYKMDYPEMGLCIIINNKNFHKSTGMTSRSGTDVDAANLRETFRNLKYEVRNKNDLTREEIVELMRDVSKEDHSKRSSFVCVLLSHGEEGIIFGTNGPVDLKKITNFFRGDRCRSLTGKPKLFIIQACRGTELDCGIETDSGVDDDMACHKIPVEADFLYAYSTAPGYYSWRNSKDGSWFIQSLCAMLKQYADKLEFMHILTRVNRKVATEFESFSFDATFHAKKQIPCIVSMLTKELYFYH

[9] = biological target: T2, Sentrin-specific protease 6 (Homo sapiens, UniProt Q9GZR1); format: functional;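 further: Luminescence-based dose-response confirmatory assay of SENP6 inhibition, following up an ultra-high-throughput screen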
T2 sequence (Q9GZR1 whole entry): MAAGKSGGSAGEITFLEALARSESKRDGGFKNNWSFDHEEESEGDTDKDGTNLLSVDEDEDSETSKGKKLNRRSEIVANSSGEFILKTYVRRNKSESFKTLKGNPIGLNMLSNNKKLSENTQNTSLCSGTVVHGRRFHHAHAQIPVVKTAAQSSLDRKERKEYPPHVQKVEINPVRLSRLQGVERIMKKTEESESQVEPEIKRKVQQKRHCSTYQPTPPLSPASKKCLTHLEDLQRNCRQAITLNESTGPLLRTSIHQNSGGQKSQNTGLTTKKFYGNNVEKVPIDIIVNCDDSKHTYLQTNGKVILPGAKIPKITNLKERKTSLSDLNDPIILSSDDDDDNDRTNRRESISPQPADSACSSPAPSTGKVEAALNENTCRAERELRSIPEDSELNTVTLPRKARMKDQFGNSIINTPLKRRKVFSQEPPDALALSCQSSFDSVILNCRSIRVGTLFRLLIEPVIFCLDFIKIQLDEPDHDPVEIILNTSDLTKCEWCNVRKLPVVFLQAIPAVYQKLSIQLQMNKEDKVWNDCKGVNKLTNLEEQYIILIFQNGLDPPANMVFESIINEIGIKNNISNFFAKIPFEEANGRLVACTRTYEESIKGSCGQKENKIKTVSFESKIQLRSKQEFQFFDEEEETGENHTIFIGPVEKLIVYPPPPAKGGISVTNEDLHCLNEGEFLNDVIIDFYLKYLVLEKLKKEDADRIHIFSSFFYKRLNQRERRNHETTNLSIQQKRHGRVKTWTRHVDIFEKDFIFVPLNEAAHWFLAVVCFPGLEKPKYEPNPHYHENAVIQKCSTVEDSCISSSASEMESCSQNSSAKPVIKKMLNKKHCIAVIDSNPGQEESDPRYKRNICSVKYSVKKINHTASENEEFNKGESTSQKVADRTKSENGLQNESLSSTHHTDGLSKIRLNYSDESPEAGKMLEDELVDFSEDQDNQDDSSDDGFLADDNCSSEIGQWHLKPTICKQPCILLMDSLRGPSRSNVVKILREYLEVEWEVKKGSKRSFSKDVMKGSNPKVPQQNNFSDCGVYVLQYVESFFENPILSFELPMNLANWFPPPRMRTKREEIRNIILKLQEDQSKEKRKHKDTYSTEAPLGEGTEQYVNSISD

[10] = test system: HeLa; experiment: ATP-based viability loss in HeLa cells – cell-based, CellTiter-Glo luminescence, cherry-pick samples, cytotoxicity control for MITF activator project, dose response (AID 540259); format: functional; conditions: Homo sapiens
[11] = biological target: T3, Sentrin-specific protease 7 (Homo sapiens, UniProt Q9BQF6); format: functional;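 further: Luminescence-based dose-response confirmation of ultra-high-throughput screening hits, measuring inhibition of SENP7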
T3 sequence (Q9BQF6 whole entry): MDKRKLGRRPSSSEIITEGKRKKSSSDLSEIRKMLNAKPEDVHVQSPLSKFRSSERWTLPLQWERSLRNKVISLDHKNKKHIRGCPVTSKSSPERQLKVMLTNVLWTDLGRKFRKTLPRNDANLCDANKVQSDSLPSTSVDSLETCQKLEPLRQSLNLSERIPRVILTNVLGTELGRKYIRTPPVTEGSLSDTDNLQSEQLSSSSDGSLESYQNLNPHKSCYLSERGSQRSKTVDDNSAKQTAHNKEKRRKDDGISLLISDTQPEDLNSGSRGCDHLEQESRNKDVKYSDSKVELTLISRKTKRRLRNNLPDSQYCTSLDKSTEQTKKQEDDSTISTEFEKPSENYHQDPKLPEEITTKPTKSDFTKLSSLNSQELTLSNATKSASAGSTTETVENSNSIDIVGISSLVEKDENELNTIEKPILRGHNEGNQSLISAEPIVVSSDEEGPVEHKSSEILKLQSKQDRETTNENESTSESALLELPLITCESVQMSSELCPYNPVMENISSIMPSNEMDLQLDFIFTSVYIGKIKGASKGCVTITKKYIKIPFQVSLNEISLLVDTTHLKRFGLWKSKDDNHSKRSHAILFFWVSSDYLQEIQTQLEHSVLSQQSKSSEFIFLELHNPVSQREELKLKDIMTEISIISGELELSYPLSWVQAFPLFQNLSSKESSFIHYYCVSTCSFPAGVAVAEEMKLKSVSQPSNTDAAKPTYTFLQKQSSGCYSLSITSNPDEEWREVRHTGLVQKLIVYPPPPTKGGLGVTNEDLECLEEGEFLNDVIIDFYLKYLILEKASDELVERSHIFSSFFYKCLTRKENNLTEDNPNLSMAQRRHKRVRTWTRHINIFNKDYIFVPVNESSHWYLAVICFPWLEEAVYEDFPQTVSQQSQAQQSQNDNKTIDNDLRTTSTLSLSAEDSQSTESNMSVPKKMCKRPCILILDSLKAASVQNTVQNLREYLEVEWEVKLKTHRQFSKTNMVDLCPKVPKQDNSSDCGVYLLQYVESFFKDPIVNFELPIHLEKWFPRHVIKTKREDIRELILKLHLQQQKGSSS

[12] = biological target: T4, Sentrin-specific protease 8 (Homo sapiens, UniProt Q96LD8); format: functional;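 further: luminescence read-out of SENP8 inhibition, dose-response confirmation following an ultra-high-throughput screen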
T4 sequence (Q96LD8 whole entry): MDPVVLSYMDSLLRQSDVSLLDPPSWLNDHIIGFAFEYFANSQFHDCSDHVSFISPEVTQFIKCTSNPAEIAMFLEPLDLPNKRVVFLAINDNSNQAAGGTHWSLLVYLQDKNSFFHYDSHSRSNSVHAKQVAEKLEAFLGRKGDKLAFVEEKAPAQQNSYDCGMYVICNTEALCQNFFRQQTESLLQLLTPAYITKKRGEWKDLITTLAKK

Chain of Dual specificity protein phosphatase 3 (P51452 whole entry): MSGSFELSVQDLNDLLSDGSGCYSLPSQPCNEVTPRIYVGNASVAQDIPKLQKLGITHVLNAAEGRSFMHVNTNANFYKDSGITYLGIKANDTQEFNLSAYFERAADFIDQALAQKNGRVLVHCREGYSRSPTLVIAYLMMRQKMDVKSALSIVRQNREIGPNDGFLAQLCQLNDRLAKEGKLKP

COc1cccc2sc(Nc3nnc(-c4cccs4)o3)nc12
active: CC50 [1] 11.1 µM | CC50 [2] 11.2 µM | EC50 [3] 415 nM | CC50 [4] > 20 µM | CC50 [5] 27.8 µM | IC50 [6] 15.6 µM | EC50 [7] 2.96 µM

COC(=O)Nc1nnc(-c2ccccc2Cl)s1
active: IC50 [8] 5.86 µM | IC50 [9] 18.9 µM | AC50 [10] 61.8 µM | IC50 [11] 5.89 µM | IC50 [12] 23.6 µM
